Source: patent US6177441A, “Treating red blood cell solutions with anti-viral agents” (Cerus Corporation, priority 1998, dated 2001)
Counter-ions that a name gives are not always drawn.

Columns and labels:
R17 [1] = assay type: cell-based, bacteriophage R17
red blood cells [2] = tested on: red blood cells
R17 [3] = experiment: R17 inactivation by Compound 1 in packed red blood cells (Example 2); assay type: cell-based, bacteriophage R17
Procedure: Another experiment was performed to test the inactivation ability of a novel compound, Compound 1. A 1:1000 dilution of R17 (stock titer was 11.9 logs) was prepared in 25 ml packed red blood cells. To each of 5 tubes was added 5 ml of this R17-packed red blood cell solution. Compound 1 was then dissolved in saline to a final concentration of 3 mg/ml. The compound in solution was added to the […] as follows: the first tube, the control tube, received saline only; the second tube received 10 μg/ml of Compound 1 in saline; the third tube received 30 μg/ml of Compound 1 in saline; the forth tube received 100 μg/ml Compound 1 in saline and the final tube received 300 μg/ml of Compound 1 in saline. The tubes were mixed and then incubated at 4° C. overnight. […] Concentrations above 30 μg/ml inactivated approximately 4 logs of R17 with a starting titer of 10 logs of R17.

cell-free HIV = experiment: microbe, parasite or virus in culture; assay type: cell-based; details: Human immunodeficiency virus 1, Erythrocyte, 100 min
cell-associated HIV = experiment: microbe, parasite or virus in culture; assay type: cell-based, HIVIIIB; details: Human immunodeficiency virus 1, Erythrocyte
red blood cells [4] = details: mouse, in vivo
red blood cells [5] = details: mouse, in vivo; remark: listed apart in the source
R17 [6] = experiment: Kinetics of R17 inactivation by QM with NAC quench (Example 3); details: for Log Titer: NAC/no QM, no NAC/no QM 8.80
red cells = details: photo treatment; cited from earlier work
R17 [7] = tested on: R17

## O=C(O)CCCc1ccc(N(CCCl)CCCl)cc1 [Chlorambucil, chlorambucil]
R17 [1]
  R17 inactivation: ≤ 0.4 logs
  R17 inactivation (words): little or no inactivation
Red blood cells [2]
  IgG binding of red cells: did not alter

## COc1c2occc2c(CN(CCCl)CCCl)c2ccc(=O)oc12 [Compound 1, 5-[N,N-bis(2-chloroethyl)amino]methyl-8-methoxypsoralen hydrochloride]
R17 [3]; 10-300 μg/ml in packed red blood cells
  R17 inactivation activity: showed R17 inactivation activity
R17 [3]; concentrations above 30 μg/ml, 4° C. overnight, starting titer 10 logs
  R17 inactivated: approximately 4 logs

## CCN(CCCl)CCCNc1c2ccc(Cl)cc2nc2ccc(OC)cc12.Cl.Cl [ICR-170, N-(2-chloroethyl)-N-ethyl-N'-(6-chloro-2-methoxy-9-acridinyl)-1,3-propanediamine dihydrochloride]
cell-free HIV
  log reduction at 10 µg/mL: 0.6
  log reduction at 20 µg/mL: 1.3
  log reduction at 40 µg/mL: 2.3
  log reduction at 80 µg/mL: 4
cell-associated HIV
  log reduction at 10 µg/mL: 0.5
  log reduction at 20 µg/mL: 1.2
  log reduction at 40 µg/mL: 2
  log reduction at 80 µg/mL: 2
Red blood cells [4]
  LOSS PER DAY: 2.71%
  RECOVERY: 86.0 ± 6.6
Red blood cells [5]
  % RECOVERY, HIGH: 90.4
  % RECOVERY, LOW: 93.1

## CC(=O)N[C@@H](CS)C(=O)O [NAC, N-acetyl-cysteine]
R17 [6]
  R17 kill by NAC alone: does not kill R17
R17 [6]; NAC added before QM
  protection against QM inactivation: substantial, but not complete protection against QM inactivation
R17 [6]; dilute at end
  Log Titer: 8.35
R17 [6]; dilute
  Log Titer: 8.73
R17 [6]; combination of NAC and dilution
  quenching of QM activity: almost complete quenching of QM activity

## CN(C)c1ccc2nc3ccc(=[N+](C)C)cc-3sc2c1 [methylene blue]
Red cells
  ATP of photo treated red cells: loss of ATP
  IgG binding of photo treated red cells: binding of autologous immunoglobulin (IgG) to the red cell surface
  ion permeability of photo treated red cells: enhanced ion permeability

## CCN(CC)CCCC(C)Nc1c2ccc(Cl)cc2nc2ccc(OC)cc12 (centres unmarked) [quinacrine]
R17 [7]
  light-dependent kill of R17: no light-dependent kill
